These are literature values, as cited in patent US20140255982A1, “METHOD OF CANCER DIAGNOSIS USING THE ANALYSIS OF ISOTOPES” (priority 2007, published 2014).

One data set deals with rats. To be noted: within 5 days; deuterium in the form of D2O.
The test system of a further data set is microorganisms. To be noted: deuterium in the form of D2O.

As for `[2H]O[2H]` [D2O], in the data set on rats, the “kill rate of rats” value is listed as 99.5%. Besides, the “inhibitory activity against microorganisms” value in the data set with microorganisms is listed as 92%.
